Substitutions are numbered along the chain they refer to.
Experiments:
[1] = molecular target: T1, human ALDH2 wild type (Homo sapiens, UniProt P05091); assay: ALDH2 enzymatic assay (NADH at 340 nm), recombinant wild type enzyme; type: biochemical; parameters: key: −: no activation or inhibition; +: activation less than control 1; ++: activation similar to control 1, within 10%; +++: activation more than control 1 and less than control (compound 161); ++++: activation similar to compound 161, within 10%; conditions: activation relative to benchmarks control 1 and compound 161
T1 construct: His-tag (pTrcHis vector) (N); made in house; host or cells: E. coli BL21
T1 sequence (P05091 18-517): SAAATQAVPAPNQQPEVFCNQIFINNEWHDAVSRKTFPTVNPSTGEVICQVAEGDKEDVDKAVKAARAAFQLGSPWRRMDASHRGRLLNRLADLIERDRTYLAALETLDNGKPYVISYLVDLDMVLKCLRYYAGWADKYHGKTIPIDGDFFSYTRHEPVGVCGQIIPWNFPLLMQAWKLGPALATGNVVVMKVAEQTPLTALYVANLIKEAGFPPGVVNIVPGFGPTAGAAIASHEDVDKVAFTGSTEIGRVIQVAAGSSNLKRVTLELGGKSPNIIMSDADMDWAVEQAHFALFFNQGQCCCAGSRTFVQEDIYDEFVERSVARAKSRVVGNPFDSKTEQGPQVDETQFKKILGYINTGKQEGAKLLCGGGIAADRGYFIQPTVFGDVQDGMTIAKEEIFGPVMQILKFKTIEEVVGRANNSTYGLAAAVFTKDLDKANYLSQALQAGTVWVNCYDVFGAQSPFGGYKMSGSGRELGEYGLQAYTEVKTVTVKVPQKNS
Source text: (§1) ALDH2 catalyzes the oxidative reaction of substrate acetaldehyde to acetic acid using NAD^+ as a cofactor. Enzymatic activity, or catalytic rate, of aldehyde dehydrogenase (ALDH2) can be measured spectrophotometrically at UV wavelength λ340 nm by the accumulation of reduced product NADH derived from NAD^+. […] This method is well-established in the literature [e.g. D. K. Rex, W. F. Bosron, J. E. Smialek, T. K. Li, Alcohol Clin Exp Res 9, 147 (1985)].
(§2) Full-length wild type human ALDH2 cDNA was purchased from ATCC (No. MGC-1806. GenBank ID: BC002967). The 18-amino acid mitochondria transport signal sequence was removed by PCR and cloned into the NheI/HindIII sites of a His-tag vector, pTrcHis, using standard molecular cloning techniques. The human ALDH2* cDNA construct containing the Asian E487K mutation was obtained by site-directed mutagenesis to create the E487K substitution of the wild type ALDH2. Both human clones were designed to express a recombinant protein with the His-tag at the N-terminus of the protein. For the co-expression experiments of human ALDH2 wild type and ALDH2*2 heterotetramers, a wild type ALDH2 gene and a ALDH2 E487K gene were inserted separately into the two multiple cloning sites of pETDuet-1 vector. (Novagen, Calif., USA). All the vectors were transformed into BL21 E. coli host cells and subjected to 0.5 mM IPTG induction for protein expression at 30° C. Purifications of the recombinant proteins by affinity nickel columns (HisTrap, GE Healthy Science, USA) were carried out using standard protocols according to manufacturer's instructions (Novagen, USA).
(§3) Control 1 and compound 161 are used as benchmarks and the symbols have the following representation: […]

[2] = molecular target: T2, human ALDH2*2 recombinant mutant enzyme (E487K) (Homo sapiens, UniProt P05091, E504K); assay: ALDH2 enzymatic assay (NADH at 340 nm), recombinant mutant enzyme; type: biochemical; parameters: key: −: no activation or inhibition; +: activation less than control 1; ++: activation similar to control 1, within 10%; +++: activation more than control 1 and less than control (compound 161); ++++: activation similar to compound 161, within 10%; conditions: activation relative to benchmarks control 1 and compound 161
T2 construct: His-tag (pTrcHis vector) (N); made in house; host or cells: E. coli BL21
T2 sequence (P05091 18-517 E504K): T1 sequence (P05091 18-517) with E487K
Source text: as §1, §2, §3

| ALDH2 (wild-type) [1] | ALDH2 (mutant) [2] | Compound |
| --- | --- | --- |
| ++ | ++ | COc1ccc(CNC(=O)c2c(Cl)ccnc2OC2CCCC2)cc1F [Compound 199] |
| +++ | +++ | COc1ccc(CNC(=O)c2c(Cl)ccnc2OCC2CCC2)cc1F [Compound 198] |
| + | + | COc1ccc(CNC(=O)c2c(Cl)ccnc2NCC(C)O)cc1F (centres unmarked) [Compound 185] |
| ++ | +++ | CCOc1cccc(Cl)c1C(=O)NCc1ccc(OC)c(F)c1 [Compound 139] |
| + | + | O=C(NCc1ccc(OC(F)(F)F)c(F)c1)c1c(Cl)ccnc1NCC1CC1 [Compound 191] |
| + | + | COc1ccc(CNC(=O)c2c(Cl)ccnc2CCC(C)C)cc1F [Compound 250] |
| + | + | COc1ccc(CNC(=O)c2c(Cl)ccnc2S(=O)(=O)C(C)C)cc1F [Compound 222] |
| + | + | COc1cccc(CNC(=O)c2c(Cl)cccc2Br)c1 [Compound 107] |
| + | ++ | COc1ccc(CNC(=O)c2c(Cl)cccc2NCCO)cc1F [Compound 109] |
| + | + | COc1ccc(CNC(=O)c2c(C(F)(F)F)ccnc2OCC2CCC2)cc1F [Compound 229] |
| + | + | O=C(NCc1ccc2ncoc2c1)c1c(Cl)ccnc1OCC1CC1 [Compound 259] |
| − | − | CC(C)Oc1ccc(CNC(=O)c2c(Cl)ccnc2OCC2CC2)cc1F [Compound 188] |
| + | ++ | COc1c(F)cc(CNC(=O)c2c(Cl)ccnc2Cl)cc1F [Compound 173] |
| + | +++ | CCCOc1nccc(Cl)c1C(=O)NCc1ccc(OC)c(F)c1 [Compound 194] |
| + | ++ | COc1ccc(CNC(=O)c2c(Cl)cncc2OCC(C)C)cc1F [Compound 240] |
| + | + | COc1ccc(CNC(=O)c2c(Cl)ccnc2S(=O)(=O)CC(C)C)cc1F [Compound 224] |
| + | + | COc1ccc(CNC(=O)c2c(C)ccnc2OC(C)C)cc1F [Compound 233] |
| ++++ | +++ | CCCSc1nccc(Cl)c1C(=O)NCc1ccc(OC)c(F)c1 [Compound 215] |
| + | + | COc1ccc(CNC(=O)c2c(C(F)(F)F)ccnc2OC(C)C)cc1F [Compound 227] |
| + | + | O=C(NCc1ccc(=O)[nH]c1)c1c(Cl)ccnc1OCC1CC1 [Compound 254] |
| ++ | + | O=C(NCc1ccc2c(c1)CCCO2)c1c(Cl)ccnc1OCC1CC1 [Compound 244] |
| − | + | COc1ccc(CNC(=O)c2c(NCCO)cccc2NCCO)cc1F [Compound 120] |
| + | + | COc1ccc(CNC(=O)c2c(C)ccnc2OCC2CCC2)cc1F [Compound 235] |
| ++ | ++ | COc1ccc(CNC(=O)c2c(Cl)cccc2OCC(C)N(C)C)cc1F (centres unmarked) [Compound 166] |
| +++ | +++ | COc1ccc(CNC(=O)c2c(Cl)ccnc2OC)cc1F [Compound 192] |

| ALDH2 (wild-type) [1] | ALDH2 (mutant) [2] | Compound |
| --- | --- | --- |
| + | + | COc1ccc(CNC(=O)c2c(C)cccc2Br)cc1 [Compound 113] |
| + | ++ | O=C(NCc1ccc(OC(F)(F)F)c(F)c1)c1c(Cl)ccnc1Cl [Compound 175] |
| + | + | CS(=O)(=O)c1ccc(CNC(=O)c2c(Cl)cccc2Cl)cc1 [Compound 112] |
| + | + | COc1ccc(CNC(=O)c2c(C)ccnc2OCC2CCNC2)cc1F (centres unmarked) [Compound 237] |
| + | ++ | COc1ccc(CNC(=O)c2c(Cl)ccnc2OCC2CC2)c(F)c1F [Compound 179] |
| + | + | O=C(NCc1ccc(F)c(F)c1)c1c(Cl)cccc1Br [Compound 153] |
| + | − | O=C(NCc1ccc2ocnc2c1)c1c(Cl)ccnc1OCC1CC1 [Compound 260] |
| − | + | CC(C)Oc1ccc(CNC(=O)c2c(Cl)ccnc2NCC2CC2)cc1F [Compound 189] |
| ++ | +++ | COc1ccc(CNC(=O)c2c(Cl)cncc2OCC2CC2)cc1F [Compound 239] |
| + | + | CCS(=O)(=O)c1nccc(Cl)c1C(=O)NCc1ccc(OC)c(F)c1 [Compound 220] |
| − | − | CC(C)Oc1ccc(CNC(=O)c2c(Cl)ccnc2Cl)cc1F [Compound 177] |
| ++ | ++ | COc1ccc(CNC(=O)c2c(Cl)ccnc2OCC(C)(C)C)cc1F [Compound 203] |
| ++ | + | COc1ccc(CNC(=O)c2c(Cl)cccc2Oc2ccc(Cl)cc2)cc1F [Compound 137] |
| ++++ | ++++ | COc1ccc(CNC(=O)c2c(Cl)ccnc2OC2CCC2)cc1F [Compound 197] |
| + | + | COc1ccc(CNC(=O)c2c(C(F)(F)F)ccnc2OCC(C)C)cc1F [Compound 226] |
| + | + | COc1ccc(CNC(=O)c2c(Cl)ccnc2OCC2CC2)cn1 [Compound 255] |
| ++ | +++ | COc1ccc(CNC(=O)c2c(Cl)cccc2OCC2CCCC2)cc1F [Compound 145] |
| ++ | + | COc1ccc(CNC(=O)c2c(Cl)ccnc2Oc2ccccc2)cc1F [Compound 206] |
| ++ | +++ | CCC(CC)Oc1cccc(Cl)c1C(=O)NCc1ccc(OC)c(F)c1 [Compound 142] |
| − | + | COc1ccc(CNC(=O)c2c(Cl)cccc2Br)cc1O [Compound 105] |
| − | − | COc1ccc(CN(C)C(=O)c2c(Cl)ccnc2OCC2CC2)cc1F [Compound 247] |
| + | + | COc1ccc(CNC(=O)c2c(Cl)cccc2Cl)cc1O [Compound 101] |
| + | + | CCC(CC)Oc1nccc(C(F)(F)F)c1C(=O)NCc1ccc(OC)c(F)c1 [Compound 228] |
| ++ | ++ | COc1ccc(CNC(=O)c2c(Cl)cccc2OCCN(C)C)cc1F [Compound 165] |

— patent US9670162B2, “Mitochondrial aldehyde dehyrogenase-2 modulators and methods of use thereof” (The Board of Trustees of the Leland Stanford Junior …, priority 2013, dated 2017)
